Residues, ends and D or L forms follow the SMILES beside them. *: point of attachment. Cbz = O=C(OCc1ccccc1)*; CH2F = FC*
Experiments:
in vitro = conditions: human
CLL cells [1] = assay: MTT cytotoxicity assay, CLL cells; format: cell-based; conditions: Homo sapiens, CLL cell, 72 hours, duplicate
Method: The compounds of the invention were screened for CLL apoptotic activity by flow cytometry and a MTT-based assay. […] Primary PBL cells were acquired from the San Diego Blood Bank, San Diego, Calif. DiOC6 and PI dyes were obtained from Molecular Probes, Eugene, Oreg. Otherwise, unless indicated, all other reagents were purchased from Sigma (St. Louis, Mo.), and all test compounds were dissolved in sterile DMSO.
To get a more concise measure of the EC50 and confirm the flow cytometry results, a MTT (3-(4,5-dimethylthiazol-2-yl)-2,5-diphenyl tertrazolium bromide) assay using a procedure similar to that described by Mosmann, T., J Immunol Methods. 1983, 65, 55-63, was performed on all analogs. This method provided a larger number of datapoints so that a value for the EC50 could be extrapolated.
This assay was based on a procedure described by Mosmann. Briefly, in each well of a 96-well plate, 5×10^5 CLL cells were suspended in 100 μL of […] medium containing 10% FBS, 100 μg/mL penicillin, and 100 μg/mL streptomycin. Serial dilution of test compounds were then performed in duplicate across the plate to establish a concentration gradient from 0 to 1000 μM. After 72 hours of incubation at 37° C., the cells were incubated for 6 more hours in the presence of 20 μL of 5 mg/mL MTT (3-(4,5-dimethylthiazol-2-yl)-2,5-diphenyl tertrazolium bromide) before dissolving the resulting crystals in 50 μL lysis buffer (15% SDS, 15 mM HCl) overnight. Afterwards, the absorbance of each well was measured at […] in a Finstrument Microplate Reader, and the data was analyzed by Graphpad Prism Software, version 2.0b.

B-cell CLL cells = conditions: cited from earlier work
CLL cells [2] = assay: Viability of CLL cells, erythrocin B exclusion assay; conditions: for toxicity of the enantiomers to CLL cells: RPMI 1640 with 10% autologous plasma, FIG. 5
HCT-116 (Colon) = assay: Cytotoxicity by MTT assay, HCT-116; format: cell-based; conditions: three days continuous exposure
normal bone marrow cells = assay: Killing of normal bone marrow cells in patient bone marrow (propidium iodide / anti-CD38, FACS); format: cell-based, human; conditions: 72 hours, marrow of two patients; FIGS. 9-10
A549 (Lung) = assay: Cytotoxicity by MTT assay, A549; format: cell-based; conditions: three days continuous exposure
LNCaP-FGC (Prostate) = assay: Cytotoxicity by MTT assay, LNCaP-FGC; format: cell-based; conditions: three days continuous exposure
multiple myeloma cells = assay: Killing of multiple myeloma cells in patient bone marrow (propidium iodide / anti-CD38, FACS); format: cell-based, human; conditions: 72 hours, marrow of two patients; FIGS. 9-10
[3] = cited from earlier work
Mcl-1 = Mcl-1 level in LNCaP cells, SDS-PAGE immunoblot; format: cell-based; conditions: for effect on the etodolac-induced fall in Mcl-1 levels: co-incubation with 5.0 μM MG-132 or pre-incubation with Z-VAD, LNCaP
[4] = Plasma pharmacokinetics of etodolac enantiomers; format: in vivo; conditions: 1 gram dosage, human subject
OVCAR-3 (Ovarian) = assay: Cytotoxicity by MTT assay, OVCAR-3; format: cell-based; conditions: three days continuous exposure
Alva-31 (Prostate) = assay: Cytotoxicity by MTT assay, Alva-31; format: cell-based; conditions: three days continuous exposure
prostate cancer tissue = assay: Prostatectomy tissue samples incubated 72 hours, histology; format: cell-based
Source text: The tissues were next fixed in 4% paraformaldehyde in PBS, embedded in paraffin, sectioned and stained with hematoxylin and eosin.

adjuvant polyarthritis = conditions: reduction in paw volume, prostaglandin synthetase inhibitory activity; cited from earlier work
PC-3 (Prostate) = assay: Cytotoxicity by MTT assay, PC-3; format: cell-based; conditions: three days continuous exposure
MDA-MB-231 (Breast) = assay: Cytotoxicity by MTT assay, MDA-MB-231; format: cell-based; conditions: three days continuous exposure
[5] = target: T1, COX-1 isolated from human platelets (Homo sapiens, UniProt P23219); assay: COX-1 enzyme assay (PGE2 enzyme immunoassay); format: biochemical; conditions: duplicate
T1 construct: COX-1 isolated from human platelets; tissue MDS Pharma Services; host or cells: human platelets
T1 sequence (P23219 24-599): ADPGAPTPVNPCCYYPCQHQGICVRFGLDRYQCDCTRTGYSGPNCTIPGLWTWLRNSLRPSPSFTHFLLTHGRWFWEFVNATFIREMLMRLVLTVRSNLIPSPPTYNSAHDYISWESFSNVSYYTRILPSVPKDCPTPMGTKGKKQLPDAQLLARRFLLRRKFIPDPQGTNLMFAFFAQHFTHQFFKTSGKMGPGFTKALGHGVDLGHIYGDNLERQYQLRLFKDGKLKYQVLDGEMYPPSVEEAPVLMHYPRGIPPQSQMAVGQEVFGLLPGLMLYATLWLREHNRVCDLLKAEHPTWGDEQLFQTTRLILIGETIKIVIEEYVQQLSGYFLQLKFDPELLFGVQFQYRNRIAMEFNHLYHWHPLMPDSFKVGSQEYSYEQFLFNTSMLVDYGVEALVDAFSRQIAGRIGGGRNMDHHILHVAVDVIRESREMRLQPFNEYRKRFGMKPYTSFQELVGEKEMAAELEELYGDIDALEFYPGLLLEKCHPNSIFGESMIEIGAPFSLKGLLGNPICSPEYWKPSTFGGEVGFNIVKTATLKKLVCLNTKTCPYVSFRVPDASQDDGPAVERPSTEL
Method: (§1) Compounds active in both the flow cytometry and MTT experiments were then tested for COX inhibition at 50 μM in an enzyme assay using COX-1 isolated from human platelets and human recombinant COX-2 purified from insect cells (Spodoptera frugiperda), as described by Riendeau et. al., Br J Pharmacol. 1997, 121, 105-117; Riendeau et. al., Can J Physiol Pharmacol. 1997, 75, 1088-1095; and Warner et. al. Proc Natl Acad Sci. 1999, 96, 7563-7568. These assays were performed by MDS Pharma Services, Bothell, Wash. The compounds were incubated in duplicate with COX-1 isolated from human platelets and human recombinant COX-2 purified from insect cells (Spodoptera frugiperda). Enzyme immunoassay quantification of prostaglandin E2 production from arachidonic acid in the presence (50 μM) and absence of test compounds was used to determine the percentage of COX inhibition.

human recombinant COX-2 = target: T2, human recombinant COX-2 (Homo sapiens, UniProt P35354); assay: COX-2 enzyme assay (PGE2 enzyme immunoassay); format: biochemical; conditions: duplicate
T2 construct: MDS Pharma Services (performed the assay); host or cells: Spodoptera frugiperda insect cells
T2 sequence (P35354 18-604): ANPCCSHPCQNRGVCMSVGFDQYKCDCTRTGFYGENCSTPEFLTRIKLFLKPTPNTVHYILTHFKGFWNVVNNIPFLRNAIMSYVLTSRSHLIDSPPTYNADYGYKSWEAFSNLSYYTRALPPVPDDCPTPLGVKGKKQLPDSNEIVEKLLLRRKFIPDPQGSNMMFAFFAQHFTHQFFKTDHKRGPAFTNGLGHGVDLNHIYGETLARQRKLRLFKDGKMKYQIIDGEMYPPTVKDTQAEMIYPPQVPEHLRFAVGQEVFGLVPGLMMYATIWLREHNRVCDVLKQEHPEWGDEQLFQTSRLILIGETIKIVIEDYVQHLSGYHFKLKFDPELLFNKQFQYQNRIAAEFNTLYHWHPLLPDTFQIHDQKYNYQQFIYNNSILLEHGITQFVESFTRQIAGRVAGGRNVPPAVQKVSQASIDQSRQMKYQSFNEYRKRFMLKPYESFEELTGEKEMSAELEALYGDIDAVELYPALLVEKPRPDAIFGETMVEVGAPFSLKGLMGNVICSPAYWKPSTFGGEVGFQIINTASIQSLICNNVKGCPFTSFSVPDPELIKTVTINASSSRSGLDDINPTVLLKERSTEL
Method: as §1

Bag-1 = Bag-1 level in LNCaP cells, SDS-PAGE immunoblot; format: cell-based; conditions: co-incubation with 5.0 μM MG-132 or pre-incubation with Z-VAD
prostate cancer = conditions: TRAMP mouse; cited from earlier work
[6] = primary normal peripheral blood lymphocyte (PBL) cells
[7] = 200 mg dose, six elderly patients

Structure (SMILES): CCc1cccc2c3c([nH]c12)C(CC)(CC=N)OCC3 (stereo not shown) [Compound 7, 2-(1,8-Diethyl-1,3,4,9-tetrahydropyrano[3,4-b]indol-yl)-ethylideneamine]
- CC50 at 48 h (in vitro; [6]): 250 to 500 µM
- EC50 (CLL cells [1]): 714 µM

Structure (SMILES): CCc1cccc2c3c([nH]c12)C(CC)(CC(C)O)OCC3 (stereo not shown) [Compound 12, 1-(1,8-Diethyl-1,3,4,9-tetrahydropyrano[3,4-b]indol-1-yl)-propan-2-ol]
- CC50 at 48 h (in vitro; [6]): 250 to 500 µM
- EC50 (CLL cells [1]): 272 µM

Structure (SMILES): CC(=O)Oc1ccccc1C(=O)O [aspirin]
- viability of B-cell CLL cells in vitro (B-cell CLL cells): reduced the viability

Structure (SMILES): CCc1cccc2c3c([nH]c12)C(CC)(CCOC)OCC3 (stereo not shown) [Compound 2, 1,8-Diethyl-1-(2-methoxyethyl)-1,3,4,9-tetrahydropyrano[3,4-b]indole]
- CC50 at 48 h (in vitro; [6]): > 750 µM
- EC50 (CLL cells [1]): > 1000 µM

Structure (SMILES): CCc1cccc2c3c([nH]c12)[C@@](CC)(CC(=O)O)OCC3 [R-etodolac]
- toxicity of the enantiomers to CLL cells (CLL cells [2]): equivalently cytotoxic
- IC50 (HCT-116 (Colon); Homo sapiens, 72 h): 280 ± 20 µM
- killing of normal bone marrow cells (normal bone marrow cells): did not kill
- CC50 at 48 h (in vitro): ~500 µM
- IC50 (A549 (Lung); Homo sapiens, 72 h): > 1000 µM
- IC50 (LNCaP-FGC (Prostate); 72 h): 270 ± 50 µM
- killing of multiple myeloma cells (multiple myeloma cells): dose-dependently killed
- maximum plasma concentration [3, 7]: about 33 μM
- plasma concentrations of the R-enantiomer relative to the S-enantiomer ([3]; after administration of RS-etodolac): about 10 fold higher
- Mcl-1 degradation by the enantiomers (Mcl-1): induced Mcl-1 degradation at equivalent concentrations
- maximal plasma concentration that a dosage should yield [4]: about 400 μM
- IC50 (OVCAR-3 (Ovarian); Homo sapiens, 72 h): > 1000 µM
- EC50 (CLL cells [1]): 247 µM
- IC50 (Alva-31 (Prostate); 72 h): > 1000 µM
- activity in prostatectomy samples (prostate cancer tissue): active
- anti-inflammatory activity (adjuvant polyarthritis): No anti-inflammatory activity was discernible
- IC50 (PC-3 (Prostate); 72 h): 150 ± 15 µM
- IC50 (MDA-MB-231 (Breast); Homo sapiens, 72 h): > 1000 µM

Structure (SMILES): CCc1cccc2c3c([nH]c12)C(CC)(CC(N)=O)OCC3 (stereo not shown) [Compound 6, 2-(1,8-Diethyl-1,3,4,9-tetrahydropyrano[3,4-b]indol-1-yl)-acetamide]
- CC50 at 48 h (in vitro; [6]): > 500 µM
- inhibition at 50 µM [5]: 36%
- inhibition at 50 µM (human recombinant COX-2): 69%
- EC50 (CLL cells [1]): 258 µM

Structure (SMILES): CCc1cccc2c3c([nH]c12)C(CC)(CCO)OCC3 (stereo not shown) [Compound 1, 2-(1,8-Diethyl-1,3,4,9-tetrahydropyrano[3,4-b]indol-1-yl)-ethanol]
- CC50 at 48 h (in vitro; [6]): ~500 µM
- inhibition at 50 µM [5]: 0%
- inhibition at 50 µM (human recombinant COX-2): 0%
- EC50 (CLL cells [1]): 178 µM

Structure (SMILES): CCc1cccc2c3c([nH]c12)C(CC)(CC=O)OCC3 (stereo not shown) [Compound 8, (1,8-Diethyl-1,3,4,9-tetrahydropyrano[3,4-b]indol-1-yl)-acetaldehyde]
- CC50 at 48 h (in vitro; [6]): < 100 µM
- EC50 (CLL cells [1]): 111 µM

Structure (SMILES): CC(C)C[C@@H](C=O)NC(=O)[C@H](CC(C)C)NC(=O)[C@H](CC(C)C)NC(=O)OCc1ccccc1 [MG-132] (Cbz-Leu-Leu-Leu-aldehyde)
- effect on the etodolac-induced fall in Mcl-1 levels (Mcl-1): prevented
- effect on the etodolac-induced fall in Bag-1 levels (Bag-1): prevented

Structure (SMILES): CCc1cccc2c3c([nH]c12)[C@](CC)(CC(=O)O)OCC3 [S-etodolac]
- toxicity of the enantiomers to CLL cells (CLL cells [2]): equivalently cytotoxic
- IC50 (HCT-116 (Colon)): 420 ± 50 µM
- IC50 (A549 (Lung)): > 1000 µM
- IC50 (LNCaP-FGC (Prostate)): 220 ± 20 µM
- maximum concentration relative to the R-enantiomer [3, 7]: 5 fold lower
- Mcl-1 degradation by the enantiomers (Mcl-1): induced Mcl-1 degradation at equivalent concentrations
- IC50 (OVCAR-3 (Ovarian)): > 1000 µM
- IC50 (Alva-31 (Prostate)): > 1000 µM
- activity in prostatectomy samples (prostate cancer tissue): active
- anti-inflammatory activity (adjuvant polyarthritis): almost all of the anti-inflammatory activity of the racemate
- IC50 (PC-3 (Prostate)): 800 µM
- IC50 (MDA-MB-231 (Breast)): > 1000 µM

Structure (SMILES): CCc1cccc2c3c([nH]c12)C(CC)(CCCl)OCC3 (stereo not shown) [Compound 4, 1-(2-Chloroethyl)-1,8-diethyl-1,3,4,9-tetrahydropyrano[3,4-b]indole]
- CC50 at 48 h (in vitro; [6]): < 100 µM
- EC50 (CLL cells [1]): 572 µM

Structure (SMILES): CCc1cccc2c3c([nH]c12)C(CC)(CCF)OCC3 (stereo not shown) [Compound 3, 1,8-Diethyl-1-(2-fluoroethyl)-1,3,4,9-tetrahydropyrano[3,4-b]indole]
- CC50 at 48 h (in vitro; [6]): < 100 µM
- EC50 (CLL cells [1]): 767 µM

Structure (SMILES): C[C@@H](C(=O)O)c1ccc(-c2ccccc2)c(F)c1 [R-flurbiprofen]
- progression of prostate cancer (prostate cancer): inhibited progression of prostate cancer

Structure (SMILES): O=C(O)c1ccccc1O [salicylate]
- viability of B-cell CLL cells in vitro (B-cell CLL cells): reduced the viability

Structure (SMILES): CCc1cccc2c3c([nH]c12)C(CC)(CC(O)O)OCC3 (stereo not shown) [Compound 11, 2-(1,8-Diethyl-1,3,4,9-tetrahydropyrano[3,4-b]indol-1-yl)-ethane-1,1-diol]
- melting point: 158 to 159 °C
- EC50 (CLL cells [1]): 416 µM

Structure (SMILES): CCc1cccc2c3c([nH]c12)C(CC)(CCOC(C)=O)OCC3 (stereo not shown) [Compound 10, Acetic acid-2-(1,8-diethyl-1,3,4,9-tetrahydropyrano[3,4-b]indol-1-yl)-ethyl ester]
- CC50 at 48 h (in vitro; [6]): 100 to 250 µM
- EC50 (CLL cells [1]): 686 µM

Structure (SMILES): Nc1nc(F)nc2c1ncn2[C@@H]1O[C@H](CO)[C@@H](O)[C@@H]1O [fludarabine]
- cytotoxic effect on CLL cells, either drug alone (CLL cells [2]; fludarabine 10 nM or etodolac 10 μM alone, 48 hours, FIG. 3): ineffective

Structure (SMILES): CCc1cccc2c3c([nH]c12)C(CC)(CC(C)=O)OCC3 (stereo not shown) [Compound 13, 1-(1,8-Diethyl-1,3,4,9-tetrahydropyrano[3,4-b]indol-1-yl)-propan-2-one]
- CC50 at 48 h (in vitro; [6]): > 750 µM
- EC50 (CLL cells [1]): > 1000 µM

Structure (SMILES): CC(NC(=O)C(NC(=O)OCc1ccccc1)C(C)C)C(=O)NC(CC(=O)O)C(=O)CF (stereo not drawn) [Z-VAD] (Cbz-Val-Ala-Asp-CH2F; configuration not given here)
- effect on the etodolac-induced fall in Mcl-1 levels (Mcl-1): did not prevent
- effect on the etodolac-induced fall in Bag-1 levels (Bag-1): did not prevent

Structure (SMILES): CCc1cccc2c3c([nH]c12)C(CC)(CCOCSC)OCC3 (stereo not shown) [Compound 9, 1,8-Diethyl-1-(2-methylsufanylmethoxyethyl)-1,3,4,9-tetrahydropyrano[3,4-b]indole]
- EC50 (CLL cells [1]): 324 µM

Structure (SMILES): CCc1cccc2c3c([nH]c12)C(CC)(CC)OCC3 [Compound 5, 1,1,8-Triethyl-1,3,4,9-tetrahydropyrano[3,4-b]indole]
- melting point: 133 to 134 °C
- EC50 (CLL cells [1]): > 1000 µM

From patent US7361680B2, “Indole compounds useful for the treatment of cancer” (The Regents of the University of California, priority 1999, dated 2008)
